According to patent EP0309120A2, “Atrial hypotensive peptide” (QUEEN'S UNIVERSITY AT KINGSTON, priority 1987, dated 1989):
Ends that are not written are not given here.

Key:
[1] = system: antiserum to iso-rANP(1-20) (P2A); assay: Radioimmunoassay (RIA) with anti-P2A antiserum and 125I-P2A-Y tracer; assay type: binding, New Zealand white rabbits; settings: antiserum used for the RIA
Source text: The procedure was repeated to produce the same 20 amino acid residue fragment with a tyrosine residue attached to the N-terminal serine. The 20-residue peptide (P2A) was mixed with Freund's complete adjuvant and injected subcutaneously into New Zealand white rabbits. After boosting at 5 weeks after the initial injection the rabbits were bled 1 week later. […] Tyrosinated P2A (P2A-Y) was iodinated using the chloramine T method and the iodinated tracer was purified by HPLC on a Waters µBondapak C₁₈ column. For radioimmunossay (RIA) the buffer contained 0.1M NaHPO₄ buffer, pH 7.4, 0.05M NaCl, 0.1% BSA and 0.02% […]. The RIA incubation mixture contained 3-100 pg of P2A in 100 µ l of buffer, 100 µl of diluted antiserum and 100 µl of ¹²⁵I-P2A-Y (approx. 8000 cpm). After incubation overnight at 4°C bound and free iodinated peptide were separated by second antibody precipitation using goat anti-rabbit - globulin. The sensitivity of the assay was 2-3 pg/tube with 50% displacement at 25-30 pg/tube.
The RIA was then used to monitor the purification of the peptide de novo from atrial extracts using gel-filtration and reverse-phase HPLC. The procedure used was essentially the same as the one briefly described above for the purification of ANP, except that the initial extraction and the gel-filtration stages were done in the presence of several protease inhibitors.

bioassay rats = assay: Bolus injection into anesthetized bioassay rats: urinary and cardiovascular responses; assay type: in vivo, male Sprague-Dawley rats
Experimental: Experiments were performed using male Sprague-Dawley rats, ranging in weight from 270-362 g. The rats were anesthetized by an intraperitoneal injection of sodium pentobarbital (70 mg.kg-1; MTC Pharmaceuticals, Hamilton, Ont.). Additional small amounts of anesthetic were administered as required in the course of the experiment. […] After installing a tracheal cannula, a femoral vein was cannulated and a priming infusion of saline (0.9% NaCl) was administered over a 20 min period (1.1 ml); this was followed by a maintenance saline infusion of 1.2 ml.h-1. The femoral artery was then cannulated for blood pressure measurement (Statham pressure transducer, model P23Db). A catheter was also advanced via the right external jugular vein towards the right heart for bolus injections of vehicle, ANF or the atrial peptide of the present invention (AHP). After tying off the penis, the bladder was cannulated for urine collection. Rates were not used or experiments aborted if the urine became bloody. The EKG was recorded for determination of heart rate.
Urine was collected in preweighed vials and volume calculated by weighing. The time for sequential urine collections was 5 min or, increments of 4 min until there was enough urine volume for electrolyte determinations (0.25 ml or 16 drops). Rat kidneys were removed at the termination of the experiments so that urinary excretion measurements could be normalized for total kidney weight. Measurements of NA+ and K+ were obtained using ion specific electrodes and Cl- was obtained by coulometric titration.
Zero time was established by 40-60 mins from the beginning the priming saline infusion. The control measurements were carried out over 20 mins or, until there was sufficient urine collection for electrolyte determinations. A bolus injection of vehicle, rANP(99-126) or iso-rANP(1-46) or iso-rANP(17-46) was then administered into the jugular vein catheter and the catheter immediately cleared of remaining injectate by a secondary bolus of 0.2 ml saline. The rANP(99-126) was obtained from Armand-Frappier, Montreal. Cardiovascular measurements were analyzed at 5 min intervals during control and at 1, 5, 10, 15 and 20 mins following administration of injectate. […] Thus, residues 17-46 of the native peptide represent a functional, as well as structural, homologue of both ANP and BNP. Moreover, it would appear that residues 1-20 of iso-rANP(1-46) are not required for biological activity. […] It required twice the dose of iso-rANP(17-46) (1.5 nanomol) to produce equivalent average decreases in mean arterial blood pressure and heart rate as rANP(99-126) (0.7 nanomol). […] Variability of response of assay rats to injected peptides is evident from the rather larger variances (SEM).

[2] = system: Aortic rings (thoracic aortae); assay: Vasorelaxant activity on phenylephrine-contracted aortic rings; design: species or system New Zealand White rabbits
Experimental: Aortic rings (3-4mm) were cut from the thoracic aortae of New Zealand White rabbits. The rings were suspended in a 10 ml tissue bath containing Kreb's Ringer Solution, pH 7.4 at 37°C. The rings were maintained at about 70% of maximal contraction with phenylephrine in doses ranging from 1 x 10⁻⁶ to 5 x 10⁻⁸M. Vasorelaxant activity or peptides was tested by adding various concentrations of peptide to the bath.

Substance	cross-reaction with antiserum [1]	effect in increasing urinary volume as well as Na+, K+ and Cl- excretion (bioassay rats; 3.0 nanomol, four-fold larger dose than rANP(99-126), compared with rANP(99-126))	potency compared with rANP(99-126) (bioassay rats; as shown in Table 1, result in words)	dose to produce equivalent average decreases in mean arterial blood pressure and heart rate (bioassay rats; bolus into jugular vein catheter)	urinary responses (bioassay rats; dose 0.9 nmol)	additional effect on cardiovascular responses (mean arterial blood pressure, heart rate) (bioassay rats; dose increased to 3.0 nanomol)	diuretic, natriuretic, hypotensive and bradycardic responses (bioassay rats; injected into bioassay rats, result in words)	smooth muscle vaso-relaxant activity ([2]; rabbit aortic rings at about 70% of maximal contraction with phenylephrine, result in words)	higher dose required to produce the same relaxation obtained by 50 ng of rANP(99-126) ([2]; rabbit aortic rings, relative to 50 ng of rANP(99-126))	potency compared with ANP(99-126) ([2]; rabbit aortic rings, result in words)
ANP: atrial natriuretic peptide, length not specified at this place	did not cross-react	–	–	–	–	–	–	–	–	–
MAHSSSCFGEKIDRIGAVSRLGCDILLIAQ (cysteine pairing not given here) [iso-rANP(17-46), chemically synthesized peptide corresponding to residues 17-46 of iso-rANP(1-46)]	–	somewhat lesser effect	somewhat less than rANP(99-126)	1.5 nmol	only a small effect in most rats	no additional effect	elicited diuretic, natriuretic, hypotensive and bradycardic responses qualitatively similar to both the native peptide and rANP	showed smooth muscle vaso-relaxant activity	20 fold	less potent
